Data as given in patent publication US20070275104A1, “Food Compositions and Methods of Treating Periodontal Disease” (priority 2006, published 2007).

What was measured:
Format in all cases: biochemical
MMP-8 = target: T1, MMP-8 (Homo sapiens, UniProt P22894); test: BIOMOL colorimetric assay kit screen of botanical extracts, MMP-8 proteolytic activity; conditions: first round screening; relative to Doxycycline
T1 construct: purchased BIOMOL
Source text: (§1) In excess of 80 botanical extracts (BE), were screened in vitro for inhibition against MMP-2, 8, & 9 proteolytic activity. […] Individual calorimetric assay kits (BIOMOL) were used according to the manufacturer's instructions to measure the proteolytic activity of MMP's-2, 8, and 9 in the presence or absence of individual extracts and define mixtures of extracts. The known MMP-inhibitor, Doxycycline was used as an internal standard for comparison of inhibiting activity. The following final concentrations of individual ingredients are combined (along with additional confirmatory test of the “neat” ingredients). Again all tests include a “gold standard” positive control (Doxycycline). The purpose of this interference testing is to see whether combined ingredients result in different levels of inhibition for all three MMP's (2, 8, 9) than found for individual ingredients. All samples are dissolved or extracted in water where practical and otherwise specified.

MMP-2 or 9 = test: BIOMOL colorimetric assay kit screen of botanical extracts, MMP-2 or 9 proteolytic activity; conditions: first round screening; relative to Doxycycline
Source text: as §1

Recombinant MMP-2 = target: T2, Recombinant MMP-2 (Homo sapiens, UniProt P08253); test: MMP-2 enzyme assay with DQ gelatin fluorescent substrate; conditions: 22° C., EAB pH 7.0, soluble phase of extracts
T2 construct: made in house
T2 sequence (P08253 110-660): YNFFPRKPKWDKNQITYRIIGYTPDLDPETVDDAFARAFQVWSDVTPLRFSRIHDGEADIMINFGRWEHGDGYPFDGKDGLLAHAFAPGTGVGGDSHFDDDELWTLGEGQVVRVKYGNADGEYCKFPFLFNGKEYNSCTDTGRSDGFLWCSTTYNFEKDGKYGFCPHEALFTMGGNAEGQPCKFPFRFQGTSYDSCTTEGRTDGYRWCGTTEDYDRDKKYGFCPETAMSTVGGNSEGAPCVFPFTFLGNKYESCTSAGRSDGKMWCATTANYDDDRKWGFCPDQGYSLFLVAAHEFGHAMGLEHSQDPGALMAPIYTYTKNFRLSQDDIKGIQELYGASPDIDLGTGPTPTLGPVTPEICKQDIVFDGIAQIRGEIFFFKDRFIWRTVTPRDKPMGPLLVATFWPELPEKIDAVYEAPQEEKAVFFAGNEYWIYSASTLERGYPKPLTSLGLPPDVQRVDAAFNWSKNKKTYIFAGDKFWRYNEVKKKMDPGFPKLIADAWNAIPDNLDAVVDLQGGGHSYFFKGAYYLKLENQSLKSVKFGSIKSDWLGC
Method: (§2) From the studies of repeated activity and lack of interference, we were able to identify three lead ingredients for further development (A, C, D; A & B were two forms of the same dried extract). These were tested in a second laboratory, using a more sensitive in vitro (non-cellular) assay system, again for individual activity and interference/synergy among MMP-inhibitors and the IL-1-inhibitor against all three forms of MMP. These assays used enzyme kinetic dose curves to determine the IC50 of each extract, Doxycyclin, and combinations of extracts (including the IL-1-inhibitor, e.g., Rosehips).
MMP-2 and MMP-9: Recombinant MMP-2 and MMP-9 were expressed as recombinant proteins and purified in constitutively active forms.
DQ gelatin: A highly labeled porcine gelatin substrate (Molecular Probes, Eugine, Oreg.) was used for the enzyme assays with MMP-2 and MMP-9. The substrate degradation was measured with λex at 494 nm and λem at 515 nm
To reduce any self-degradation of the gelatin substrate, all assays were performed at 22° C. The enzyme assay buffer (EAB) used for MMP-2, MMP-9, and MMP-8 was 50 mM Tris, pH 7.0, 200 mM NaCl, 5 mM CaCl2, 1 μM ZnCl2, 0.05% Brij 35. Assays were performed under conditions where the substrates were not rate limiting. […]

[1] = target: T3, MMP-8 (purified human neutrophil collagenase) (Homo sapiens, UniProt P22894); test: MMP-8 enzyme assay with fluorescent peptide substrate; conditions: APMA-activated MMP-8, 22° C., EAB pH 7.0
T3 construct: purchased EMD Biosciences/Calbiochem 444229
T3 sequence (P22894 101-467): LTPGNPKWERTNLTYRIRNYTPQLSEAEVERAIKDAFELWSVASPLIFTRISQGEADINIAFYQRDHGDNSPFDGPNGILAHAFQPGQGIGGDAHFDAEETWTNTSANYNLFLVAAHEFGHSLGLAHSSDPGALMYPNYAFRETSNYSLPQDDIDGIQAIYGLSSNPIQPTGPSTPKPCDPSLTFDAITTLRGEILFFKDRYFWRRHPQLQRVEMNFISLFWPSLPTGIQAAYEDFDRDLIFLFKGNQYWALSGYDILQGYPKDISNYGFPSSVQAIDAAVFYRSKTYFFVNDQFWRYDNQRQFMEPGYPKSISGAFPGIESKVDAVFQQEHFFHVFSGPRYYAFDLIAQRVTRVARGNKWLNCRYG
Method: as §2
MMP-8: Purified human neutrophil collagenase was purchased from EMD
Biosciences/Calbiochem, cat # 444229. Activation of MMP-8 was required for the experiments and was performed using aminophenylmercuric acetate (APMA) for 2 h at 37° C.
Peptide substrate: The fluorescent peptide substrate Mca-Pro-Leu-Gly-Leu-Dnp-Ala-Arg-NH2 was for measuring the MMP-8 activities (Peptides International, Louisville, Ky.). The Mca is a fluorescent group and Dnp is a quencher. When the cleavage occurs, a strong fluorescent signal is released and can be measured with λex at 328 nm and λem at 393 nm.
To reduce any self-degradation of the gelatin substrate, all assays were performed at 22° C. […]

T1 sequence (P22894 100-262 limits assumed): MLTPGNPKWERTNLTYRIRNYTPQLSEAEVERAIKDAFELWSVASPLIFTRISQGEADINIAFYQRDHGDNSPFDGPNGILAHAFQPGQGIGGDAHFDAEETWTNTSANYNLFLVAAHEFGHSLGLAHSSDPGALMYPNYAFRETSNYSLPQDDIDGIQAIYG

Compound	Inhib. Relative to Doxy. (Fold = % inhib X/% inhib Dox), MMP-8 (MMP-8)	Inhib. Relative to Doxy. (Fold = % inhib X/% inhib Dox), MMP-2 or 9 (MMP-2 or 9)	IC50 for MMP-2 (Recombinant MMP-2)	IC50 for MMP-8 [1]
O=c1c(O)c(-c2ccc(O)c(O)c2)oc2cc(O)cc(O)c12 [E) Quercetin, Quercetin]	0.82 Fold	1.56 Fold	–	–
C[C@H]1c2cccc(O)c2C(O)=C2C(=O)[C@]3(O)C(O)=C(C(N)=O)C(=O)[C@@H](N(C)C)[C@@H]3[C@@H](O)[C@@H]21 [DOX, Doxycycline]	–	–	32 µg/mL	35 µg/mL
